# Article PMC7265341, “Quantifying CDK inhibitor selectivity in live cells” (Nature Communications, 2020)
# Where two headings read alike, the source gives them in different places.
# Assays:
# Assay type in all cases: binding
# CDK1/Cyclin E1 = CDK1/Cyclin E1 (Homo sapiens, UniProt P06493); test: NanoBRET live-cell target engagement, CDK1-NanoLuc/Cyclin E1 in HEK-293
# CDK2/Cyclin E1 = CDK2/Cyclin E1 (Homo sapiens, UniProt P24941); test: NanoBRET live-cell target engagement, CDK2-NanoLuc/Cyclin E1 in HEK-293
# CDK3/Cyclin E1 = CDK3/Cyclin E1 (Homo sapiens, UniProt Q00526); test: NanoBRET live-cell target engagement, CDK3-NanoLuc/Cyclin E1 in HEK-293; conditions: CDK3/E1; for IC50: read-out: IC50
# CDK4/Cyclin D1 = CDK4/Cyclin D1 (Homo sapiens, UniProt P11802); test: NanoBRET live-cell target engagement, NanoLuc-CDK4/Cyclin D1 in HEK-293; conditions: CDK4/D1; for IC50: read-out: IC50
# CDK5/CDK5R1 = CDK5/CDK5R1 (Homo sapiens, UniProt Q00535); test: NanoBRET live-cell target engagement, CDK5-NanoLuc/CDK5R1 in HEK-293
# CDK7 = CDK7 (Homo sapiens, UniProt P50613); test: NanoBRET live-cell target engagement, NanoLuc-CDK7 in HEK-293; conditions: CDK7; for IC50: read-out: IC50
# CDK8/Cyclin C = CDK8/Cyclin C (Homo sapiens, UniProt P49336); test: NanoBRET live-cell target engagement, NanoLuc-CDK8/Cyclin C in HEK-293; conditions: CDK8/C
# CDK9/Cyclin K = CDK9/Cyclin K (Homo sapiens, UniProt P50750); test: NanoBRET live-cell target engagement, NanoLuc-CDK9/Cyclin K in HEK-293; conditions: CDK9/K; average
# Chain of CDK9/Cyclin K (P50750 whole entry): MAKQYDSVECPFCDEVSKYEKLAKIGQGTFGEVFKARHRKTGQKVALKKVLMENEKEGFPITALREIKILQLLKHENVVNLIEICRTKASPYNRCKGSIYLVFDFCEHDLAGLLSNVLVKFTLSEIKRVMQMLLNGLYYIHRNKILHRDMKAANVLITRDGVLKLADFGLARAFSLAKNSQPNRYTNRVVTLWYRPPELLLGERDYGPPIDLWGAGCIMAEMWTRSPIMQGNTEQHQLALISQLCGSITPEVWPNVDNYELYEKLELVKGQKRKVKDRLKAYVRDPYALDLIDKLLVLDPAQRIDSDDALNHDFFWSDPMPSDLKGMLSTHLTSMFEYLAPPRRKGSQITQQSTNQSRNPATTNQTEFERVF
# Chain of CDK9/Cyclin K (O75909 whole entry partner): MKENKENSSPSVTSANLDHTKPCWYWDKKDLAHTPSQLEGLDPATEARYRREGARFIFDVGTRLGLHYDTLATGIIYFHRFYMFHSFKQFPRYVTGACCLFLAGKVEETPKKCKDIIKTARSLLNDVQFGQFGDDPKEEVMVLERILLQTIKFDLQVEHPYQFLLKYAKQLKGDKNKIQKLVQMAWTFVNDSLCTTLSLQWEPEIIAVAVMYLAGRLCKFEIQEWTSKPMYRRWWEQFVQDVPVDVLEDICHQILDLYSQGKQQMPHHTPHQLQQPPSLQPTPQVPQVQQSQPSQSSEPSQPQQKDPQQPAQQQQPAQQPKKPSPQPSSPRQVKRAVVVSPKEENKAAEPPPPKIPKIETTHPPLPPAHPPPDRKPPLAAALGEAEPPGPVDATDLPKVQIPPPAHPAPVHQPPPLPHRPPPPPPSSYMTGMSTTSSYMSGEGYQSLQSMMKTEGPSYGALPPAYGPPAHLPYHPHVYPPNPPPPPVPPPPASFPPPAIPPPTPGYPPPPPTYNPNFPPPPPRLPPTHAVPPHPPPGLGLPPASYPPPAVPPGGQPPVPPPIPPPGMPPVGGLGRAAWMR
# Chain of CDK4/Cyclin D1 (P11802 whole entry): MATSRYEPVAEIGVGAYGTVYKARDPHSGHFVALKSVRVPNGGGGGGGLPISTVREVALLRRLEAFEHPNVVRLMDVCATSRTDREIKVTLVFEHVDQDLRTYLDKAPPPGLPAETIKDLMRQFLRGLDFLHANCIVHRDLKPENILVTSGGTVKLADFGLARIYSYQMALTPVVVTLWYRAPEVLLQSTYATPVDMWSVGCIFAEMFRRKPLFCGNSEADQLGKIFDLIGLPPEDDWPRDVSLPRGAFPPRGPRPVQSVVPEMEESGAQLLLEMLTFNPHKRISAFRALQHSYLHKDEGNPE
# Chain of CDK4/Cyclin D1 (P24385 whole entry partner): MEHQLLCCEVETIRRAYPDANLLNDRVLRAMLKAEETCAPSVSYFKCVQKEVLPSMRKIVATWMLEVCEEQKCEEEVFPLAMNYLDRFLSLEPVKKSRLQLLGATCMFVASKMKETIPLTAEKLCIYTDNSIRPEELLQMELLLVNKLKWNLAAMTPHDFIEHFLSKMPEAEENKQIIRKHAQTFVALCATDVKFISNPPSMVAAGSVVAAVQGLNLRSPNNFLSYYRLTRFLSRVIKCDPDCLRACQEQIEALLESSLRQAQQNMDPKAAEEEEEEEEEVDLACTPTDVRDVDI
# Chain of CDK1/Cyclin E1 (P06493 whole entry): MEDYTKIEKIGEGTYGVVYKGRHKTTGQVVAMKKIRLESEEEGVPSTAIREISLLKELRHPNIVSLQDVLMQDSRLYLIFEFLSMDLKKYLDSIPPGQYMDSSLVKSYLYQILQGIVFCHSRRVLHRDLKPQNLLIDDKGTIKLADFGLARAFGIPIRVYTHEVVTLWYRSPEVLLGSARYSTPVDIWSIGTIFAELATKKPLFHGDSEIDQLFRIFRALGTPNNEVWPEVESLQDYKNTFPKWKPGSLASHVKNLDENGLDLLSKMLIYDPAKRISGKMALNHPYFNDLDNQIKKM
# Chain of CDK1/Cyclin E1 (P24864 whole entry partner): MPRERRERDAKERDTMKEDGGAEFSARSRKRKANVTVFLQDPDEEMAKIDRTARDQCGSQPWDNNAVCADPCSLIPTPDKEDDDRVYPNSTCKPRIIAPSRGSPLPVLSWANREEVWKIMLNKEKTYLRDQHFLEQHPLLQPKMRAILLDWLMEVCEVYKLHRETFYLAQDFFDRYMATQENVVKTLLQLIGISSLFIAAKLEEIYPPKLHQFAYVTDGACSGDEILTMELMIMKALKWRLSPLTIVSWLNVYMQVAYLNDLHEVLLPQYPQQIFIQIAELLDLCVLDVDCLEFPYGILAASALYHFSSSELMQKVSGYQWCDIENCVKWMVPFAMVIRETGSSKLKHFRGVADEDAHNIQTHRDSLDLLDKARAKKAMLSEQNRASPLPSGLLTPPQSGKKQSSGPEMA
# Chain of CDK5/CDK5R1 (Q00535 whole entry): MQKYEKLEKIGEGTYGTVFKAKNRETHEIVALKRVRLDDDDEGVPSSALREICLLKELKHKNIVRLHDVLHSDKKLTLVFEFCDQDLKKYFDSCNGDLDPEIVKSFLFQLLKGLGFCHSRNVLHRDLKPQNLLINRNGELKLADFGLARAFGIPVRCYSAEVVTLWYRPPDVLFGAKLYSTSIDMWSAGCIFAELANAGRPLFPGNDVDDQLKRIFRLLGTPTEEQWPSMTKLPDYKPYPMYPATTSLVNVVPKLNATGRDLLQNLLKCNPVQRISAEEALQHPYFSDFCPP
# Chain of CDK5/CDK5R1 (Q15078 whole entry partner): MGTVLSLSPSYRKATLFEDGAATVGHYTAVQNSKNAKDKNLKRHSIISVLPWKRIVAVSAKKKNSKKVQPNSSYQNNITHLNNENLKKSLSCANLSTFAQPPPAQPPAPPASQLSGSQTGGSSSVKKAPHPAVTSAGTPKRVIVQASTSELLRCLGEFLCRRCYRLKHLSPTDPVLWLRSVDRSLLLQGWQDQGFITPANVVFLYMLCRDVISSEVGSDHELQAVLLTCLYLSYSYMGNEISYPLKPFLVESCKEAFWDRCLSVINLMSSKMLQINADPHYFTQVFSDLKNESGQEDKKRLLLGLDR
# Chain of CDK7 (P50613 whole entry): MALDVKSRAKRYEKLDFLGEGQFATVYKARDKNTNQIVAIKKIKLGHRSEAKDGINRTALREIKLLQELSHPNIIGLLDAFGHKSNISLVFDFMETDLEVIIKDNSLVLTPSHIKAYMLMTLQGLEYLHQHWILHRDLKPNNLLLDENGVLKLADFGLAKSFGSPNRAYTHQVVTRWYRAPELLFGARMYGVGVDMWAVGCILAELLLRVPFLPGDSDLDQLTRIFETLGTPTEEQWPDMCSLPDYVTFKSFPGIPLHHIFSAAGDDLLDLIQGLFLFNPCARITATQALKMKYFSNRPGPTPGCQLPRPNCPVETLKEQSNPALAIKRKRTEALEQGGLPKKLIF
# Chain of CDK3/Cyclin E1 (Q00526 whole entry): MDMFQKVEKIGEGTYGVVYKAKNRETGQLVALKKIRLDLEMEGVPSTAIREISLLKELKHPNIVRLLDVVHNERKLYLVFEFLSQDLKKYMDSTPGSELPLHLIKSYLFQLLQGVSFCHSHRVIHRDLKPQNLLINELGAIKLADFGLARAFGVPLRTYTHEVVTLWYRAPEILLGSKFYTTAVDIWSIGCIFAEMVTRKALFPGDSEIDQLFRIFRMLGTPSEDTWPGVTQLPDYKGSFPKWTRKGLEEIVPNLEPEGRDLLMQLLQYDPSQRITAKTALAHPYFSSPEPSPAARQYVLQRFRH
# Chain of CDK3/Cyclin E1 (P24864 whole entry partner): as the sequence (P24864 whole entry partner) above
# Chain of CDK8/Cyclin C (P49336 whole entry): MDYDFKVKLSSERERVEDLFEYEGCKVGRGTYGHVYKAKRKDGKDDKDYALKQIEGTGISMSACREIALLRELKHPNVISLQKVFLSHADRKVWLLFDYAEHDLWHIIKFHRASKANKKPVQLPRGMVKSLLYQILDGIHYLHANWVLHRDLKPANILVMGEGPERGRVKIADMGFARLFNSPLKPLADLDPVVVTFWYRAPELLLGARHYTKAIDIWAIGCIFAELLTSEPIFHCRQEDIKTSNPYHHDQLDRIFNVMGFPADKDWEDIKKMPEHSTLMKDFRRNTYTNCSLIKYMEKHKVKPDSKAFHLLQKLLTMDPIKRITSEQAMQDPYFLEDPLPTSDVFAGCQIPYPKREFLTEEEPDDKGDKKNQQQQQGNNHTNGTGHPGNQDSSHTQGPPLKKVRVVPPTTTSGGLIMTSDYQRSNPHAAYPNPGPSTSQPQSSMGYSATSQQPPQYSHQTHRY
# Chain of CDK8/Cyclin C (P24863 whole entry partner): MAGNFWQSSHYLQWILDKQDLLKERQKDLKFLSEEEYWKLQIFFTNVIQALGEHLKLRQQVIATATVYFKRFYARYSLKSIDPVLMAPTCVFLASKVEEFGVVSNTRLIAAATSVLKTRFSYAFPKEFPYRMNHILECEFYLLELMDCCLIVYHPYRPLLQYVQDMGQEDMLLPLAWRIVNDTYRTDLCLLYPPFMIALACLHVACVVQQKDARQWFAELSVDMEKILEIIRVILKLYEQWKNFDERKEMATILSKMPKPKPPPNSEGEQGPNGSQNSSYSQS
smiles,measurement,setting,value
CC(C)c1cnn2c(NCc3ccccc3-n3cccn3)nc(OC3CCCNC3)nc12 (stereo not shown) [LDC4297],Inhibition at 10µM (%),"CDK1/Cyclin E1; CDK1/E1, average",72.7%
same,IC50,"CDK1/Cyclin E1; CDK1/E1, average (± SEM where n=3), read-out: IC50",0.07 ± 0.02 µM
same,Inhibition at 10µM (%),"CDK1/Cyclin E1; CDK1/E1, experiment 1",70.9%
same,IC50,"CDK1/Cyclin E1; CDK1/E1, experiment 1, read-out: IC50",0.07 µM
same,Inhibition at 10µM (%),"CDK1/Cyclin E1; CDK1/E1, experiment 2",74.5%
same,IC50,"CDK1/Cyclin E1; CDK1/E1, experiment 2, read-out: IC50",0.11 µM
same,IC50,"CDK1/Cyclin E1; CDK1/E1, experiment 3, read-out: IC50",0.043 µM
same,IC50,"CDK1/Cyclin E1; live HEK-293, 2 h, mean ± S.E.M. (n=3) or mean (n=2), read-out: IC50 for CDK/cyclin complexes, CDK1/E1",0.07 ± 0.02 µM
same,Inhibition at 10µM (%),"CDK2/Cyclin E1; CDK2/E1, average",88.3%
same,IC50,"CDK2/Cyclin E1; CDK2/E1, average (± SEM where n=3), read-out: IC50",0.085 ± 0.002 µM
same,Inhibition at 10µM (%),"CDK2/Cyclin E1; CDK2/E1, experiment 1",85.3%
same,IC50,"CDK2/Cyclin E1; CDK2/E1, experiment 1, read-out: IC50",0.081 µM
same,Inhibition at 10µM (%),"CDK2/Cyclin E1; CDK2/E1, experiment 2",91.3%
same,IC50,"CDK2/Cyclin E1; CDK2/E1, experiment 2, read-out: IC50",0.086 µM
same,IC50,"CDK2/Cyclin E1; CDK2/E1, experiment 3, read-out: IC50",0.085 µM
same,IC50,"CDK2/Cyclin E1; live HEK-293, 2 h, mean ± S.E.M. (n=3) or mean (n=2), read-out: IC50 for CDK/cyclin complexes, CDK2/E1",0.085 ± 0.002 µM
same,Inhibition at 10µM (%),CDK3/Cyclin E1; average,89.3%
same,IC50,CDK3/Cyclin E1; average (± SEM where n=3),0.24 ± 0.07 µM
same,Inhibition at 10µM (%),CDK3/Cyclin E1; experiment 1,89.3%
same,IC50,CDK3/Cyclin E1; experiment 1,0.121 µM
same,Inhibition at 10µM (%),CDK3/Cyclin E1; experiment 2,89.4%
same,IC50,CDK3/Cyclin E1; experiment 2,0.37 µM
same,IC50,CDK3/Cyclin E1; experiment 3,0.234 µM
same,Inhibition at 10µM (%),CDK4/Cyclin D1; average,58.1%
same,IC50,CDK4/Cyclin D1; average (± SEM where n=3),0.08 ± 0.03 µM
same,Inhibition at 10µM (%),CDK4/Cyclin D1; experiment 1,52.3%
same,IC50,CDK4/Cyclin D1; experiment 1,0.02 µM
same,Inhibition at 10µM (%),CDK4/Cyclin D1; experiment 2,64.0%
same,IC50,CDK4/Cyclin D1; experiment 2,0.1 µM
same,IC50,CDK4/Cyclin D1; experiment 3,0.104 µM
same,Inhibition at 10µM (%),"CDK5/CDK5R1; CDK5/CDK5R1, average",89.8%
same,IC50,"CDK5/CDK5R1; CDK5/CDK5R1, average (± SEM where n=3), read-out: IC50",0.28 ± 0.05 µM
same,Inhibition at 10µM (%),"CDK5/CDK5R1; CDK5/CDK5R1, experiment 1",86.3%
same,IC50,"CDK5/CDK5R1; CDK5/CDK5R1, experiment 1, read-out: IC50",0.204 µM
same,Inhibition at 10µM (%),"CDK5/CDK5R1; CDK5/CDK5R1, experiment 2",93.4%
same,IC50,"CDK5/CDK5R1; CDK5/CDK5R1, experiment 2, read-out: IC50",0.28 µM
same,IC50,"CDK5/CDK5R1; CDK5/CDK5R1, experiment 3, read-out: IC50",0.36 µM
same,IC50,"CDK5/CDK5R1; live HEK-293, 2 h, mean ± S.E.M. (n=3) or mean (n=2), read-out: IC50 for CDK/cyclin complexes, CDK5/R1",0.28 ± 0.05 µM
same,Inhibition at 10µM (%),CDK7; average,93.9%
same,IC50,CDK7; average (± SEM where n=3),0.022 ± 0.006 µM
same,Inhibition at 10µM (%),CDK7; experiment 1,93.7%
same,IC50,CDK7; experiment 1,0.017 µM
same,Inhibition at 10µM (%),CDK7; experiment 2,94.2%
same,IC50,CDK7; experiment 2,0.015 µM
same,IC50,CDK7; experiment 3,0.033 µM
same,Inhibition at 10µM (%),CDK8/Cyclin C; average,3.8%
same,Inhibition at 10µM (%),CDK8/Cyclin C; experiment 1,14.8%
same,Inhibition at 10µM (%),CDK8/Cyclin C; experiment 2,-7.1%
same,Inhibition at 10µM (%),CDK9/Cyclin K,42.4%
